{
  "source": "patent US20160193299A1",
  "about": "“MODIFIED NUCLEOSIDE, NUCLEOTIDE, AND NUCLEIC ACID COMPOSITIONS” (Moderna Therapeutics, Inc., priority 2011, published 2016)",
  "key": {"mouse myoblast (C2C12)": {"system": "mouse myoblast (C2C12)", "experiment": "Example 44 signal sequence exchange study, secreted G-CSF ELISA", "format": "cell-based", "conditions": "MM, 250 ng modified mRNA, supernatant after 24 hrs", "source_text": "(§1) These variants included the G-CSF constructs encoding either the wild-type N terminal secretory signal peptide sequence ([…]; SEQ ID NO: 21), no secretory signal peptide sequence, or secretory signal peptide sequences taken from other mRNAs. These included sequences where the wild type GCSF signal peptide sequence was replaced with the signal peptide sequence of either: human α-1-anti trypsin (AAT) ([…]; SEQ ID NO: 22), human Factor IX (FIX) ([…]; SEQ ID NO: 23), human Prolactin (Prolac) ([…]; SEQ ID NO: 24), or human Albumin (Alb) ([…]; SEQ ID NO: 25).\n(§2) 250 ng of modified mRNA encoding each G-CSF variant was transfected into HEK293A (293A in the table), mouse myoblast (MM in the table) (C2C12, CRL-1772, ATCC) and rat myoblast (RM in the table) (L6 line, CRL-1458, ATCC) cell lines in a 24 well plate using 1 ul of Lipofectamine 2000 (Life Technologies), each well containing 300,000 cells. […] The data shown in Table 68 reveal that cells transfected with G-CSF mmRNA encoding the Albumin signal peptide secrete at least 12 fold more G-CSF protein than its wild type counterpart."}, "rat myoblast (L6 line)": {"system": "rat myoblast (L6 line)", "experiment": "Example 44 signal sequence exchange study, secreted G-CSF ELISA", "format": "cell-based", "conditions": "RM, 250 ng modified mRNA, supernatant after 24 hrs", "source_text": "as §1, §2"}, "HEK293A": {"system": "HEK293A", "experiment": "Example 44 signal sequence exchange study, secreted G-CSF ELISA", "format": "cell-based, human", "conditions": "293A, 250 ng modified mRNA, supernatant after 24 hrs", "source_text": "as §1, §2"}, "Factor IX [1]": {"system": "Factor IX", "experiment": "Example 39 in vivo study of Factor IX mmRNA IM, serum Factor IX", "conditions": "mice IM, 2×100 ug/mouse, 13 hours", "protocol": "Human Factor IX mmRNA (Gen1; fully modified 5-methycytosine and pseudouridine) formulated in formulation buffer was delivered to mice via intramuscular injection.\nThe mice were bled at 13 hours after the intramuscular injection to determine the concentration of human the polypeptide in serum in pg/mL."}, "Factor IX [2]": {"system": "Factor IX", "experiment": "Example 16 lipid nanoparticle in vivo study, serum Factor IX ELISA", "design": "species or system mice", "protocol": "Mice were sacrificed at 8 hrs after dosing. […] Protein expression was determined by ELISA.\nAs used in Table 30, the symbol “˜” means about."}, "TNF-alpha": {"system": "TNF-alpha", "experiment": "Example 46A percent-modified G-CSF mRNA transfected in PBMC, TNF-alpha ELISA", "format": "cell-based, human", "protocol": "The supernatant was harvested and run by ELISA 22 hours after transfection to determine the protein expression."}, "Female BALB/C mice": {"system": "Female BALB/C mice", "experiment": "In vivo detection of innate immune response: human G-CSF and mouse IFN-alpha in serum after I.M. injection", "conditions": "I.M., 8 hours after dosing", "description": "Blood is collected at 8 hours after dosing and using ELISA the protein levels of G-CSF and interferon-alpha (IFN-alpha) is determined by ELISA and are shown in Table 81."}, "IFN-alpha": {"system": "IFN-alpha", "experiment": "Example 45 cytokine study in PBMC, IFN-alpha ELISA", "format": "cell-based, human", "conditions": "for IFN-alpha signal - 2 donor average: PBMC", "protocol": "(§3) The plates were then incubated at 37 C.\n(§4) Each condition was done in duplicate.\n(§5) Shown in Tables 69 and 70 are the average from 2 separate PBMC donors of the G-CSF and IFN-alpha production over time as measured by specific ELISA."}, "mice": {"system": "mice", "experiment": "In vivo cytokine expression study (serum IFN-alpha)", "conditions": "mouse serum; I.M. 200 ug mRNA; after 8 hours", "description": "After 8 hours serum was collected from the mice and analyzed for interferon-alpha (IFN-alpha) expression."}, "[3]": {"system": "female Sprague Dawley rats", "experiment": "In vivo delivery of modified RNA: G-CSF protein in rat serum (I.M.)", "conditions": "I.M. 400 ug in 100 ul, 5% sucrose, 8 hours after injection", "protocol": "Protein production of modified mRNA was evaluated by delivering modified G-CSF mRNA or modified Factor IX mRNA to female Sprague Dawley rats (n=6). […] Blood was collected 8 hours after injection and the G-CSF protein level in serum was measured by ELISA."}, "Factor IX protein": {"system": "Factor IX protein", "experiment": "Factor IX mRNA transfected in serum-free media (2D HPLC / MALDI peptide detection)", "format": "cell-based, Human", "conditions": "8 peptides detected, 7 unique to Factor IX", "source_text": "The cell culture supernatant was collected and subjected to trypsin digestion before undergoing 2-dimensional HPLC separation of the peptides. Matrix-assisted laser desorption/ionization was used to detect the peptides. 8 peptides were detected and 7 of the detected peptides are unique to Factor IX."}, "human G-CSF": {"system": "human G-CSF", "experiment": "Example 32C human G-CSF modified RNA lipoplex vs saline comparison IM/SC, serum G-CSF ELISA", "format": "in vivo, C57/BL6 mice", "conditions": "mouse serum, I.M. or S.C., 13 hours", "protocol": "A formulation containing 100 μg of either modified human G-CSF mRNA lipoplexed with 30% by volume of RNAIMAX™ with a 5-methylcytosine (5mc) and a pseudouridine (ψ) modification (G-CSF-Gen1-Lipoplex), modified human G-CSF mRNA with a 5mc and w modification in saline (G-CSF-Gen1-Saline), modified human G-CSF mRNA with a N1-5-methylcytosine (N1-5mc) and a w modification lipoplexed with 30% by volume of RNAIMAX™ (G-CSF-Gen2-Lipoplex), modified human G-CSF mRNA with a N1-5mc and ψ modification in saline (G-CSF-Gen2-Saline), modified luciferase with a 5mc and ψ modification lipoplexed with 30% by volume of RNAIMAX™ (Luc-Lipoplex), or modified luciferase mRNA with a a 5mc and ψ modification in saline (Luc-Saline) was delivered intramuscularly (I.M.) or subcutaneously (S.C.) and a control group for each method of administration was giving a dose of 80 uL of the formulation buffer (F. Buffer) to C57/BL6 mice. 13 hours post injection serum and tissue from the site of injection were collected from each mouse and analyzed by G-CSF ELISA to compare human G-CSF protein levels. The results of the human G-CSF protein in mouse serum from the intramuscular administration and the subcutaneous administration results are shown in Table 55."}, "neutrophil count": {"system": "neutrophil count", "experiment": "Example 40 multi-site IM and SC administration of G-CSF mRNA, neutrophil count", "format": "in vivo", "conditions": "mice, day 3", "protocol": "Injection of four doses or 2×50 ug (two sites) daily for three days (24 hrs interval) was performed. The fourth dose was administered 6 hrs before blood collection and CBC analysis. […] The mice were bled at 72 hours after the first mRNA injection (6 hours after the last mRNA dose) to determine the effect of mRNA-encoded human G-CSF on the neutrophil count. The dosing regimen is shown in Table 63 as are the resulting neutrophil counts (thousands/uL). In Table 63, an asterisks (*) indicate statistical significance at p<0.05."}, "human PBMC": {"system": "human PBMC", "experiment": "Example 45 cytokine study in PBMC, G-CSF production ELISA", "format": "cell-based", "conditions": "Lipofectamine 2000", "protocol": "as §3, §4, §5\nIn the G-CSF ELISA, background signal from the Lipofectamine 2000 untreated condition was subtracted at each timepoint. […] Many other cytokines were not affected by either modification."}},
  "data": [
    {"molecule": "Factor IX: human Factor IX mRNA SEQ ID NO: 10, polyA ~160 nt, Cap1, fully modified with 5-methylcytosine and pseudouridine", "values": [
      {"measurement": "secreted G-CSF protein", "setting": "mouse myoblast (C2C12)", "result": 6175, "unit": "pg/mL"},
      {"measurement": "secreted G-CSF protein", "setting": "rat myoblast (L6 line)", "result": 11675, "unit": "pg/mL"},
      {"measurement": "secreted G-CSF protein", "setting": "HEK293A", "result": 11675, "unit": "pg/mL"},
      {"measurement": "Factor IX in serum", "setting": "Factor IX [1]", "result": 1600, "unit": "pg/mL"},
      {"measurement": "Factor IX Serum Concentration 8-12 hours after administration", "setting": "Factor IX [2]; IM, 2 × 100 ug", "result": "~1.6", "unit": "ng/mL"},
      {"measurement": "Factor IX Serum Concentration 8-12 hours after administration", "setting": "Factor IX [2]; IV (LNP), 1 ug", "result": "~40", "unit": "ng/mL"},
      {"measurement": "Factor IX Serum Concentration 8-12 hours after administration", "setting": "Factor IX [2]; IV (LNP), 10 ug", "result": "~400", "unit": "ng/mL"},
      {"measurement": "Factor IX Serum Concentration 8-12 hours after administration", "setting": "Factor IX [2]; IV (LNP), 100 ug", "result": "~3,000-10,000 ng/ml"},
      {"measurement": "Factor IX Protein Expression, Conc", "setting": "Factor IX [2]; mice IV LNP, 10 ug, serum 8 hrs", "result": 383.04, "unit": "ng/mL"},
      {"measurement": "Factor IX Protein Expression, Conc", "setting": "Factor IX [2]; mice IV LNP, 100 ug, serum 8 hrs, dilution 50x", "result": 3247.75, "unit": "ng/mL"},
      {"measurement": "Factor IX Protein Expression, Conc", "setting": "Factor IX [2]; mice IV LNP, 100 ug, serum 8 hrs, dilution 250x", "result": 11177.20, "unit": "ng/mL"},
      {"measurement": "Factor IX protein expression", "setting": "Factor IX [2]; mice IV LNP, 100 ug, serum 8 hrs, range given in text", "result": "3000 to 11000", "unit": "ng/mL"}
    ]},
    {"molecule": "CCOCc1nc2c(N)nc3ccccc3c2n1CC(C)(C)O", "note": "[Formulation R-848, reference compound]", "values": [
      {"measurement": "TNF-alpha Expression", "setting": "TNF-alpha", "result": 256.6, "unit": "pg/mL"},
      {"measurement": "G-CSF protein", "setting": "Female BALB/C mice; human G-CSF in mouse serum, 200 ug/mouse mRNA (R848 75 ug) in 5% sucrose", "result": 3.4, "unit": "pg/mL"},
      {"measurement": "IFN-alpha expression", "setting": "Female BALB/C mice; mouse IFN-alpha in serum, 200 ug/mouse mRNA (R848 75 ug)", "result": 40.97, "unit": "pg/mL"},
      {"measurement": "IFN-alpha signal - 2 donor average", "setting": "IFN-alpha; 2 Hr", "result": 39.1, "unit": "pg/mL"},
      {"measurement": "IFN-alpha signal - 2 donor average", "setting": "IFN-alpha; 4 Hr", "result": 151.3, "unit": "pg/mL"},
      {"measurement": "IFN-alpha signal - 2 donor average", "setting": "IFN-alpha; 8 Hr", "result": 278.4, "unit": "pg/mL"},
      {"measurement": "IFN-alpha signal - 2 donor average", "setting": "IFN-alpha; 20 Hr", "result": 362.2, "unit": "pg/mL"},
      {"measurement": "IFN-alpha signal - 2 donor average", "setting": "IFN-alpha; 44 Hr", "result": 208.1, "unit": "pg/mL"},
      {"measurement": "IFN-alpha", "setting": "mice", "result": 40.971, "unit": "pg/mL"}
    ]},
    {"molecule": "Factor IX Gen 1: Factor IX mRNA SEQ ID NO: 10, Cap1, fully modified with 5-methylcytosine and pseudouridine", "values": [
      {"measurement": "G-CSF protein", "setting": "[3]", "result": 2.25, "unit": "pg/mL"},
      {"measurement": "expression of Factor IX protein", "setting": "Factor IX protein", "result": "able to express full-length Factor IX protein"}
    ]},
    {"molecule": "Gen2 G-CSF mRNA: human G-CSF mRNA SEQ ID NO: 6 fully modified with 5-methylcytosine and N1-methylpseudouridine (nucleic acid, listed as Homo sapiens, 5mC/N1-methylpseudouridine modified) GGGAAAUAAGAGAGAAAAGAAGAGUAAGAAGAAAUAUAAGAGCCACCAUGGCCGGUCCCGCGACCCAAAGCCCCAUGAAACUUAUGGCCCUGCAGUUGCUGCUUUGGCACUCGGCCCUCUGGACAGUCCAAGAAGCGACUCCUCUCGGACCUGCCUCAUCGUUGCCGCAGUCAUUCCUUUUGAAGUGUCUGGAGCAGGUGCGAAAGAUUCAGGGCGAUGGAGCCGCACUCCAAGAGAAGCUCUGCGCGACAUACAAACUUUGCCAUCCCGAGGAGCUCGUACUGCUCGGGCACAGCUUGGGGAUUCCCUGGGCUCCUCUCUCGUCCUGUCCGUCGCAGGCUUUGCAGUUGGCAGGGUGCCUUUCCCAGCUCCACUCCGGUUUGUUCUUGUAUCAGGGACUGCUGCAAGCCCUUGAGGGAAUCUCGCCAGAAUUGGGCCCGACGCUGGACACGUUGCAGCUCGACGUGGCGGAUUUCGCAACAACCAUCUGGCAGCAGAUGGAGGAACUGGGGAUGGCACCCGCGCUGCAGCCCACGCAGGGGGCAAUGCCGGCCUUUGCGUCCGCGUUUCAGCGCAGGGCGGGUGGAGUCCUCGUAGCGAGCCACCUUCAAUCAUUUUUGGAAGUCUCGUACCGGGUGCUGAGACAUCUUGCGCAGCCGUGAAGCGCUGCCUUCUGCGGGGCUUGCCUUCUGGCCAUGCCCUUCUUCUCUCCCUUGCACCUGUACCUCUUGGUCUUUGAAUAAAGCCUGAGUAGGAAG", "values": [
      {"measurement": "human G-CSF protein production relative to 5-methylcytosine/pseudouridine modified mRNA", "setting": "human G-CSF", "result": "increased human G-CSF protein production"},
      {"measurement": "increase in neutrophil count above control", "setting": "neutrophil count; intramuscular", "result": "two fold increase"},
      {"measurement": "increase in neutrophil count above control", "setting": "neutrophil count; subcutaneous", "result": "two fold increase"},
      {"measurement": "G-CSF production", "setting": "human PBMC", "result": "highest level of G-CSF production"},
      {"measurement": "innate immune recognition, cytokine production (IFN-alpha and others)", "setting": "IFN-alpha; human PBMC, Lipofectamine 2000", "result": "did not significantly increase cytokines"}
    ]}
  ]
}
